Measured values taken from paper PMC7689096, “Cyclizing Painkillers: Development of Backbone-Cyclic TAPS Analogs” (Frontiers in Chemistry, 2020).
Where “and” joins values, the source holds several entries; their conditions need not be identical. Equal entries are not always repeated.

Columns and labels:
[1] = biological target: T1, human recombinant μ (MOP, OPRM1) receptor (Homo sapiens, UniProt P35372); experiment: MOP opioid receptor functional agonism in CHO cells expressing human recombinant μ receptors; format: cell-based; conditions: At 10^−6 M, percent of control specific agonist response, values lower than 25% not significant
T1 construct: host or cells: CHO cells
T1 sequence (P35372 whole entry): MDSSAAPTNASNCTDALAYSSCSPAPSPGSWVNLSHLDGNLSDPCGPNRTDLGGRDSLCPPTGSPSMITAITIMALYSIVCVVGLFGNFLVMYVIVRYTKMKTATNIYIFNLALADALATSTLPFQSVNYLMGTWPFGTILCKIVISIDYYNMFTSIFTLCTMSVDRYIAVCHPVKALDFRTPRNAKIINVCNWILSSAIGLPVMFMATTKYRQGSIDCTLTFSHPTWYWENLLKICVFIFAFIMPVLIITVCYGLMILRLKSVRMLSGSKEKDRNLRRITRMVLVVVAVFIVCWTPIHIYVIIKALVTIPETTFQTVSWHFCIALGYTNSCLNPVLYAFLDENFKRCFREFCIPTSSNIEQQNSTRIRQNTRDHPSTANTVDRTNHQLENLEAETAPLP
Protocol: Peptides were tested for μ (MOP, OPRM1) and δ (DOP, OPRD2) opioid receptor activation functional agonism and antagonism using CHO cells expressing human recombinant μ receptors and NG-10815 cells which express significant endogenous levels of δ opioid receptors. The cultures were incubated for 10 min at 37°C followed by impedance measurements of CHO cells and cAMP was assayed by the HTRF method using NG-10815 cells, according to CEREP standard assay protocols. The respective reference, non-peptide small molecules were tested concurrently with the TAPS analogs. The agonist compounds were: DPDPE (selective agonist of DOP receptor) and DAMGO (high MOP receptor specificity) and the antagonist compounds were: Naltrindole (selective DOP receptor antagonist) and CTOP (MOP receptor antagonist). […] The results are expressed as a percentage of respective control-specific response. […] These findings indicate that TAPS cyclic peptides are MOP selective full agonists. […] The cyclic TAPS peptide had lower activity than the linear parent TAPS peptide (90 ± 5%) – a finding that can be attributed to their restricted conformation relative to the flexible linear peptide conformation.
Evaluation of the Agonist Activity of Compounds at the Human μ Receptor in Transfected CHO Cells, Determined by Measuring Their Effects on cAMP modulation Using the HTRF Detection Method
Thereafter, the adenylyl cyclase activator NKH 477 is added at a final concentration of […]. Following 10 min incubation at 37°C, the cells are lysed and the fluorescence acceptor (D2-labeled cAMP) and fluorescence donor (anti-cAMP antibody labeled with europium cryptate) are added. After 60 min at room temperature, the fluorescence transfer is measured at lex = 337 nm and lem = 620 and 665 nm using a microplate reader (Rubystar, BMG). The cAMP concentration is determined by dividing the signal measured at 665 nm by that measured at 620 nm (ratio). The results are expressed as a percent of the control response to 1 μM DAMGO. The standard reference agonist is DAMGO, which is tested in each experiment at several concentrations to generate a concentration-response curve from which its EC50 value is calculated.
The respective reference, non-peptide small molecules were tested concurrently with the TAPS analogs; Agonist compounds DPDPE ([D-Pen2,D-Pen5]enkephalin), selective agonist of DOP receptor at 2 × 10^−9 M and DAMGO ([D-Ala2, N-MePhe4, Gly-ol] enkephalin), high MOP specificity at 2.5 × 10^−9 M; Antagonist compounds: naltrindole 7-(cyclopropylmethyl)-6,7-dehydro-4,5α-epoxy-3,14-dihydroxy-6,7-2′,3′-indolomorphinan hydrochloride, selective DOP antagonist, 5 × 10^−10 M and CTOP (D-Phe-Cys-Tyr-D-Trp-Orn-Thr-Pen-Thr-NH2), MOP antagonist at 3.4 × 10^−7 M. Depending on the assay volume and solvent tolerance, the stock solutions were diluted to [100×], [333×] or [1,000×] in 100% DMEM solvent, then either added directly or further diluted to [10×] or [5×] in H2O or Hank's balanced salt solution (HBSS) before addition to the assay well (final solvent concentration kept constant). The cultures were incubated for 10 min at 37°C followed by impedance measurements using cellular dielectric spectroscopy of CHO cells and cAMP was assayed by homogeneous time resolved fluorescence (HTRF) method using NG-10815 cells, according to CEREP standard assay protocols (https://euroscreenfast.com/assays/opioid-orl1-camp-fast-0360c; https://euroscreenfast.com/assays/opioid-op1-delta-camp-fast-0379c). The results (mean of three experiments) are expressed as a percent of control specific agonist response [(measured TAPS specific response/control specific agonist response) × 100] and as a percent inhibition of control specific agonist response [100 – (measured TAPS specific response/control specific agonist response) × 100] obtained in the presence of the TAPS compounds. […]

mice = experiment: Mouse tail flick test (analgesia); format: in vivo
Protocol: Following the preliminary results showing the in vitro agonist effect of TAPS c(2-6) in activating the μ-opioid receptor, the activity of TAPS c(2-6) in inducing analgesia in vivo was studied utilizing the mouse tail flick model. In this model, the mouse is exposed to local pain induced by an infrared light beam at the tail of the animal, and the time it takes for the animal to react to the pain, i.e., flick its tail, termed the “Latency time to tail flick,” is recorded. The treatment groups received either 5 or 15 mg/kg of TAPS c(2-6) dissolved in PBS. These were compared to animals receiving morphine (5 mg/kg) as a positive control or vehicle (PBS) as a negative control (Figure 9).
For the assessment of analgesia induced by TAPS c(2-6), the mouse tail-flick model was used. […] Animals were placed upon the TF instrument surface (Ugo Basile S.R.L) and held in place. The tail was placed straight back over an infrared light source. The heat source and timer were turned on and automatically switched off when the mouse flicked its tail away from the heat source. The time it took for the animal to flick its tail was measured and results were recorded as latency time to TF. […] Prior to TF measurement, assessment of possible locomotor side-effects via the Open-Field model was performed, as will be described in the next section TAPS c(2-6) Adverse Effect Assessment- the Open-Field Test.

N=C(N)NCCC[C@@H]1C(=O)N[C@@H](Cc2ccccc2)C(=O)N(CC(N)=O)CCNC(=O)NCCCCCCN1C(=O)[C@@H](N)Cc1ccc(O)cc1 [TAPS c(2-6)]
MOP agonist (%) [1]: 48 ± 3% and 48^** %
analgesia (latency time to tail flick) (mice; 5 mg/kg IP, compared to PBS): induced analgesia
analgesia (latency time to tail flick) (mice; 15 mg/kg IP, compared to morphine 5 mg/kg): comparative in strength and duration to that induced by morphine
duration of analgesia (mice; higher dosage 15 mg/kg IP): at least 5 h
